The source of these data is patent EP0333676A2, “Use of 1-(2-ethoxy-2-(3'-pyridyl)ethyl)-4-(2'methoxy-phenyl)piperazine, for the preparation of pharmaceutical compositions useful for the treatment of lower urinary tract disfunctions and benign prostatic hypertrophy” (MALESCI ISTITUTO FARMACOBIOLOGICO S.p.A., priority 1988, dated 1989).

The subject of series [1] is urethane anaesthetized normotensive rats. Briefly: Hypotensive effect in urethane-anaesthetized normotensive rats. It is filed as in vivo, rat. Conditions: i.v. administration. How it is done: (§1) Male albino rats, Wistar strain, weighting 300-350 g, were treated for 2 weeks with testosterone propionate at the dose of 3 mg/Kg s.c.. Afterwards animals were anaesthetized with urethane 40% s.c. (0.3 ml/hg) and then transvescical cystometrogram were perfused according to the method of Maggi et al. (J. Pharmacol. Meth. 15, 157; 1986). Testosterone-treated animals were characterized by the appearance of frequent, scarcely effective, micturition complexes and by a very high residual volume (about double than controls). […] It is important to underline that in urethane anaesthetized normotensive rats, i.v. administration of compound of invention exerts an hypotensive effect in the range 3-100 ug/kg.

Another series has as its system alpha₁-adrenoceptor. Briefly: Antagonism of the phenylephrine concentration-response curve in isolated rat proximal urethra. Particulars: versus phenylephrine, compound at 1 nM, rightward parallel displacement of the curve. As to the method:
(§2) In the "in vitro" studies, male albino rats, Wistar Nossan strain, weighing 300-350 g were used. Animals were sacrificed by cervical dislocation and the proximal urethra was quickly excised, cleaned of connective tissues and then suspended in an organ bath and tied to an isometric force transducer, under resting tension of 0.5 g. Experiments were performed at 37°C and the bathing medium (gassed with 95% O₂ and 5% CO₂) had the following composition (mM): NaCl 119, KCl 4.7, MgSO₄ 1.5, […], CaCl₂ 2.5, NaHCO₃ 25 and glucose 11. Experiments were carried out after 60 min equilibration period.
(§3) In a first group of experiments a cumulative concentration response curve to alpha₁-adrenoceptor selective agonist, phenylephrine, was obtained in control conditions or in presence of the compound of invention (1 nM). The compound of invention (1 nM) produced a rightward parallel displacement of concentration response curve to phenylephrine with a pA₂ of 9.18±0.12. In another set of experiments urethral contractions were obtained by means of field stimulation (20 Hz, 0.5 msec, maximal voltage; trains of 5 sec every 4 min). These contractions (obtained in a medium additionated with atropine 1 uM) were TTX-sensitive and probably due to stimulation of adrenergic fibers. […]

For series [2], the system named is rat chronically treated with testosterone. In words: Transvesical cystometrogram in rats chronically treated with testosterone (urethral outflow obstruction). Format: in vivo. Conditions: 0.1-3 ug/Kg i.v.; rats treated for 2 weeks with testosterone propionate 3 mg/Kg s.c.; urethane anaesthesia. How it is done: (§4) In the "vivo" studies two experimental models characterized by urethral outflow obstruction were used: a) rat chronically treated with testosterone and b) rat acutely treated with hexamethonium.
as §1

Series [3] concerns rat acutely treated with hexamethonium. In words: Transvesical cystometrogram in rats acutely treated with hexamethonium (urethral outflow obstruction). Format: in vivo. Conditions: pretreatment at doses lower than 3 ug/Kg i.v. As to the method: as §4
Urethane-anaesthetized male albino rats, Wistar strain weighing 300-350 g, were used.
Administration of hexamethonium (40 mg/Kg i.v.) 5 minutes before start of transvescical cystometrogram produced in about 75% of animals an overflow incontinence coupled to high values of intravescical pressure.

Another series has as its system isolated urethra of rat. In words: Inhibition of field stimulation-induced contractions of isolated rat proximal urethra. Conditions: inhibition of urethral contractions by field stimulation (20 Hz, 0.5 msec, maximal voltage), atropine 1 uM in medium, range 1 pM-1 nM, printed interval (0.09-0.18), read-out: EC₅₀. As to the method: as §2, §3

`CCOC(CN1CCN(c2ccccc2OC)CC1)c1cccnc1` (racemic) [compound of invention, 1-(2-ethoxy-2-(3′-pyridyl)ethyl)-4-(2′-methoxy-phenyl)piperazine]: the “dose range exerting an hypotensive effect” value in series [1] lay within 3 to 100 µg/kg. Also, in the series on alpha₁-adrenoceptor, the pA₂ is on record as 9.18±0.12. For the same compound, the voiding efficiency result in series [2] was “clear, objective and prompt beneficial action on the voiding efficiency”. In addition, the intravescical pressure entry in series [3] (hexamethonium 40 mg/Kg i.v.) is listed as “lower intravescical pressure values”. The overflow incontinence entry in series [3] (hexamethonium 40 mg/Kg i.v. (about 75% of animals incontinent without pretreatment)) is “never produced overflow incontinence”. Also, in the series with isolated urethra of rat, the EC50 was 0.13 nM.
